According to patent publication US11866430B2, “Naphthyridinone compounds useful as T cell activators” (priority 2018, dated 2024):
Several values for one entry are separate records, joined by “and”; a condition that tells them apart may be missing. Equal entries are not always repeated. Where two headings read alike, the source gives them in different places.

Columns and labels:
human DGKζ [1] = biological target: T1, human DGKζ (Homo sapiens (Human), UniProt Q13574); experiment: DGKζ LIPGLO assay (extruded liposome substrate); type: biochemical; conditions: extruded liposome substrate; read-out: DGKζ LIPGLO IC50
T1 sequence (Q13574 other isoform, or with tags, fused parts or gaps): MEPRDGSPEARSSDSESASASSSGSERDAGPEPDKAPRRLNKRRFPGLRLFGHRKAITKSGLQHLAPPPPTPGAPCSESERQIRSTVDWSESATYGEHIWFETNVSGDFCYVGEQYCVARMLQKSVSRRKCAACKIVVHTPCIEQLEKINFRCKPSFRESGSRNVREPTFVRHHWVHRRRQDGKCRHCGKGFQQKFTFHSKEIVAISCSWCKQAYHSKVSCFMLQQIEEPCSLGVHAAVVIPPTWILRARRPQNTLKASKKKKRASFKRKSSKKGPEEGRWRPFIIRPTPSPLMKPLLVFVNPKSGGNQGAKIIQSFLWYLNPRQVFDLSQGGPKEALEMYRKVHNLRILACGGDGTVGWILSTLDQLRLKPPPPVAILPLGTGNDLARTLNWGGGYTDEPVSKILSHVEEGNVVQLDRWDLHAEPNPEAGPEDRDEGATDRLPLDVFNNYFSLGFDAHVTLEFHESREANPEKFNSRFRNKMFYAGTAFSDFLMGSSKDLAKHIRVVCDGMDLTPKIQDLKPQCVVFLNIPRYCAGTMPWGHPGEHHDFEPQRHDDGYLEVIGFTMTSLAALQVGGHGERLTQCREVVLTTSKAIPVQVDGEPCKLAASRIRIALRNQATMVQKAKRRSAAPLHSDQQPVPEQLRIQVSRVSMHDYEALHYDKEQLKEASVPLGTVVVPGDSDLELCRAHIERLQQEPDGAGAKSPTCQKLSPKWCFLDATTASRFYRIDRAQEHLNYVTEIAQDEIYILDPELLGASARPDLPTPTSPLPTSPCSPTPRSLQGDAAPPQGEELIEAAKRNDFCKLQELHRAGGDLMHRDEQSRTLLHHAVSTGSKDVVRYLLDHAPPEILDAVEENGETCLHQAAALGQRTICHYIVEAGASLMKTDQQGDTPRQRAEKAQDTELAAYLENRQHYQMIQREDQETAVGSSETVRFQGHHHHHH
Summary of the method: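 Recombinant DGKζ (Sf9-expressed, Ni/SEC/SP-purified) preincubated 10 min with extruded 100 nm PC/DAG/PS liposomes in 50 mM MOPS pH 7.5, 100 mM NaCl, 10 mM MgCl2, 1 μM CaCl2, 1 mM DTT. Started with 300 uM ATP solution (stock, pre-addition); 1 hr reaction. ADP-Glo luminescence; IC50 from 11 concentrations.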

naïve human CD8 T cells = experiment: cells; conditions: Homo sapiens, T-cell, read-out: HuCD8 INFG Normalized EC50, anti-CD3 plus anti-CD28 as baseline; 3 μM Example 40 co-stimulation as 100% activation
Method: Frozen naïve human CD8 T cells were thawed in ATM-V media, incubated for 2 h in 37° C., and counted. The 384-well tissue culture plate was coated overnight at 4° C. with 20 μl anti-human CD3 at 0.05 μg/mL in PBS, which was removed off the plate before 40,000 cells per 40 microliters CD8 T cells with 0.1 μg/mL soluble anti-human CD28 were added to each well. The compounds were transferred using an Echo liquid handler to the cell plate immediately after the cells were plated. After 20 h incubation at 37° C. incubator, 3 microliters per well supernatants transferred into a new 384-well white assay plate for cytokine measurement.
Interferon-γ (IFN-γ) was quantitated using the AlphaLISA kit (Cat #AL217) as described by the manufacturer manual (Perkin Elmer). The counts from each well were converted to IFN-γ concentration […].

human DGKα [2] = biological target: T2, human DGKα (Homo sapiens (Human), UniProt P23743); experiment: DGKα LIPGLO assay (extruded liposome substrate); type: biochemical
T2 sequence (P23743 other isoform, or with tags, fused parts or gaps): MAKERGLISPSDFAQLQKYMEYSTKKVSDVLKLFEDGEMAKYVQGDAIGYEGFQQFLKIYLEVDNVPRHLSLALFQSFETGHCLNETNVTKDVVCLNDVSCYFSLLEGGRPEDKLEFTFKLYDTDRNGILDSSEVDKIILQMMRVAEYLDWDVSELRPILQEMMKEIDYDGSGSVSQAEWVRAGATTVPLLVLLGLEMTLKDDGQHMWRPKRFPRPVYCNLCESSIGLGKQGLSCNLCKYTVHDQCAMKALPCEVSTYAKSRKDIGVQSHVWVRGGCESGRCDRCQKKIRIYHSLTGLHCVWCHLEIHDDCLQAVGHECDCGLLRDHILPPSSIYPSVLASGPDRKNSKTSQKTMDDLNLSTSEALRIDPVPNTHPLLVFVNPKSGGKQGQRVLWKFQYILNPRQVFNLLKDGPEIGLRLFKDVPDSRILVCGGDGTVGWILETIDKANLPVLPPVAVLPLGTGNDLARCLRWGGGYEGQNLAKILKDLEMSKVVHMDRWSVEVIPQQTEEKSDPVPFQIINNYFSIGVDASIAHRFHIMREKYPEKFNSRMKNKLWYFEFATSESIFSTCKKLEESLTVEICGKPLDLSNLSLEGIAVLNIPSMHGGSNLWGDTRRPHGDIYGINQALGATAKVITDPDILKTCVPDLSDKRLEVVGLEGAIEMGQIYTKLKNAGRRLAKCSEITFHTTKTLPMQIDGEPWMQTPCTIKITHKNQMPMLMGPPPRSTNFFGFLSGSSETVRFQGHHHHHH
Summary of the method: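 Human full-length DGKα, His-tagged and produced in Sf9 cells, assayed at 20 nM (4× stock) on extruded liposomes of PS, 0.25 mM DAG and 2.75 mM PC, preincubated 10 min. Reaction started with 300 μM ATP (stock) and ran 1 h in MOPS pH 7.5/MgCl2/CaCl2/DTT buffer.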

[3] = tested on: Jurkat AP1-luciferase Reporter; experiment: DGK AP1-Reporter Assay; type: cell-based
Method: The Jurkat AP1-luciferase Reporter was generated using the Cignal Lenti AP1 Reporter (luc) Kit from SABiosciences (CLS-011L).
The sample size was 30 nl per well; and one destination plate per source plate. The cell suspensions were prepared by transferring 40 mL cells (2×20 mL) to clean 50 mL conical tubes. The cells were concentrated by centrifugation (1200 rpm; 5 mins; ambient temperature). […] The cell plates were incubated for 20 minutes at 37° C., and 5% CO2.
During the incubation, anti-CD3 antibody (αCD3) solutions were prepared by mixing 3 μl αCD3 (1.3 mg/mL) with 10 mL medium [final conc=0.4 μg/mL]. Next, 1.5 μl αCD3 (1.3 mg/mL) was mixed with 0.5 mL medium [final conc=4 μg/mL]. After 20 minutes, 10 μl medium was added to all wells in column 1, wells A to M, and 10 μl αCD3 (4 μg/mL) per well was added in column 1, rows N to P for reference. Then using a multi-channel pipette, 10 μl αCD3 (0.4 μg/mL) per well was added. The αCD3 stimulated +/− compound-treated cells were incubated at 37° C., 5% CO2 for 6 hours.
During this incubation period. Steady-Glo (Promega E2520) reagent was slowly thawed on to ambient temperature. Next, 20 μl Steady-Glo reagent per well was added using a multi-drop Combi-dispenser. Bubbles were removed by centrifugation (2000 rpm, ambient temperature, 10 sees). The cells were incubated at room temperature for 5 minutes. Samples were characterized by measuring the Relative Light Units (RLU) with an using Envision Plate Reader Instrument on a luminescence protocol.

[4] = tested on: pre-activated CD4 T cells and Raji cells; experiment: Raji CD4 T Cell IL2 Assay; type: cell-based
human DGKα [5] = biological target: T2, human DGKα; experiment: biochemical; conditions: detergent/lipid micelle substrate; read-out: DGKα IC50
Summary of the method: (§1)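 Enzymes were baculovirus/Sf9 full-length human DGKα or DGKζ with His tag. The substrate was PS/DAG in octyl glucoside micelles, in MOPS pH 7.5 buffer with NaCl, MgCl2, CaCl2 and DTT.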

human DGKζ [6] = biological target: T1, human DGKζ; experiment: DGKζ assay (detergent/lipid micelle substrate); type: biochemical; conditions: detergent/lipid micelle substrate; read-out: DGKζ IC50
Summary of the method: as §1

[7] = read-out: API-Luciferase Reporter IC50, Table 3
[8] = Homo sapiens, Jurkat, read-out: API-Luciferase Reporter IC50, Table 3
[9] = Homo sapiens, Jurkat, read-out: DGKAP1 Lucif Reporter IC50, Table 4

| SMILES | IC50 (human DGKζ [1]) | EC50 (naïve human CD8 T cells) | IC50 (human DGKα [2]) | IC50 [3, 7] | IC50 ([4]; Homo sapiens, Raji) | IC50 (human DGKα [5]) | IC50 (human DGKζ [6]) | IC50 [4] | IC50 [3, 8] | IC50 [3, 9] |
| --- | --- | --- | --- | --- | --- | --- | --- | --- | --- | --- |
| CCC(c1ccc(F)cc1)N1CCN(c2c(C#N)c(=O)n(C)c3ccc(C)nc23)CC1 (racemic) [Example 398, 4-{4-[1-(4-fluorophenyl)propyl]piperazin-1-yl}-1,6-dimethyl-2-oxo-1,2-dihydro-1,5-naphthyridine-3-carbonitrile] | > 240 µM and 49 µM | 1210 nM | – | – | – | – | – | – | – | – |
| Cn1c(=O)c(C#N)c(N2CCN(C(c3ccccc3)c3ccc(Cl)cc3)CC2)c2nc(Br)ccc21 (racemic) [Example 429, 6-bromo-4-{4-[(4-chlorophenyl)(phenyl)methyl]piperazin-1-yl}-1-methyl-2-oxo-1,2-dihydro-1,5-naphthyridine-3-carbonitrile] | 9.4 µM | 80 nM | 1800 nM | – | – | – | – | – | – | – |
| Cn1c(=O)c(C#N)c(N2CCN(C(c3ccccc3)c3ccc(F)cc3)CC2)c2nc(Br)ccc21 (racemic) [Example 430, 6-bromo-4-{4-[(4-fluorophenyl)(phenyl)methyl]piperazin-1-yl}-1-methyl-2-oxo-1,2-dihydro-1,5-naphthyridine-3-carbonitrile] | 3 µM | 300 nM | 1900 nM | – | – | – | – | – | – | – |
| COc1ccccc1C(c1ccc(F)cc1)N1CCN(c2c([N+](=O)[O-])c(=O)n(C)c3ccc(C#N)nc23)CC1 (single isomer, unassigned) [Example 19, 8-{4-[(4-fluorophenyl)(2-methoxyphenyl)methyl]piperazin-1-yl}-5-methyl-7-nitro-6-oxo-5,6-dihydro-1,5-naphthyridine-2-carbonitrile] | – | – | – | 830 nM | > 100 µM | 13 µM | 19 µM | – | – | – |
| COc1ccccc1C(c1ccc(F)cc1)N1CCN(c2c([N+](=O)[O-])c(=O)n(C)c3ccc(C#N)nc23)CC1 (single isomer, unassigned) [Example 20, 8-{4-[(4-fluorophenyl)(2-methoxyphenyl)methyl]piperazin-1-yl}-5-methyl-7-nitro-6-oxo-5,6-dihydro-1,5-naphthyridine-2-carbonitrile] | – | – | – | 400 nM | – | 3.3 µM | 4.3 µM | > 100 µM | – | – |
| Cn1c(=O)c([N+](=O)[O-])c(N2CCN(C(c3ccccc3)c3ccccc3O)CC2)c2nc(Br)ccc21 (single isomer, unassigned) [Example 78, 6-bromo-4-(4-((2-hydroxyphenyl)(phenyl)methyl)piperazin-1-yl)-1-methyl-3-nitro-1,5-naphthyridin-2(1H)-one] | – | – | – | – | – | 12 µM | > 240 µM | > 100 µM | 140 nM | – |
| COc1ccc2c(n1)c(N1CCN(C(c3ccc(F)cc3)c3ccc(F)cc3OC)CC1)c(C#N)c(=O)n2C (single isomer, unassigned) [Example 413, 4-{4-[(4-fluoro-2-methoxyphenyl)(4-fluorophenyl)methyl]piperazin-1-yl}-6-methoxy-1-methyl-2-oxo-1,2-dihydro-1,5-naphthyridine-3-carbonitrile] | 0.97 µM | 40 nM | 3300 nM | – | – | – | – | – | – | – |
| C#CCn1c(=O)c(C#N)c(N2CCN(Cc3c(C)cc(C)cc3O)CC2)c2nc(Br)ccc21 [Example 69, 6-bromo-4-(4-(2-hydroxy-4,6-dimethylbenzyl)piperazin-1-yl)-2-oxo-1-(prop-2-yn-1-yl)-1,2-dihydro-1,5-naphthyridine-3-carbonitrile] | – | – | – | – | > 100 µM | 1.3 µM | 13 µM | – | 510 nM | – |
| C#CCn1c(=O)c([N+](=O)[O-])c(N2CCN(C3CCc4ccc(OC)cc43)CC2)c2nc(C#N)ccc21 (stereo not drawn) [Example 138, 8-(4-(6-methoxy-2,3-dihydro-1H-inden-1-yl)piperazin-1-yl)-7-nitro-6-oxo-5-(prop-2-yn-1-yl)-5,6-dihydro-1,5-naphthyridine-2-carbonitrile] | – | – | – | – | > 100 µM | 32 µM | 0.73 µM | – | 660 nM | – |
| COCCn1c(=O)c([N+](=O)[O-])c(N2CCN(C3CCc4ccc(OC)cc43)CC2)c2nc(C#N)ccc21 (stereo not drawn) [Example 146, 8-(4-(6-methoxy-2,3-dihydro-1H-inden-1-yl)piperazin-1-yl)-5-(2-methoxyethyl)-7-nitro-6-oxo-5,6-dihydro-1,5-naphthyridine-2-carbonitrile] | – | – | – | – | > 100 µM | > 240 µM | 36 µM | – | 1870 nM | – |
| COc1cc(F)ccc1C(c1ccc(F)cc1OC)N1CCN(c2c(C#N)c(=O)n(C)c3ccc(C)nc23)CC1 [Example 251, 4-{4-[bis(4-fluoro-2-methoxyphenyl)methyl]piperazin-1-yl}-1,6-dimethyl-2-oxo-1,2-dihydro-1,5-naphthyridine-3-carbonitrile] | 9 µM | 580 nM | > 240000 nM | – | – | – | – | – | – | – |
| COCCC(C)N1CCN(c2c(C#N)c(=O)n(C)c3ccc(C)nc23)CC1 (stereo not drawn) [Example 252, 4-[4-(4-methoxybutan-2-yl)piperazin-1-yl]-1,6-dimethyl-2-oxo-1,2-dihydro-1,5-naphthyridine-3-carbonitrile] | 200 µM | 10000 nM | > 240000 nM | – | – | – | – | – | – | – |
| Cn1c(=O)c(C#N)c(N2CCN(Cc3ccc(O)c(F)c3)CC2)c2nc(C#N)ccc21 [Example 363, 8-{4-[(3-fluoro-4-hydroxyphenyl)methyl]piperazin-1-yl}-5-methyl-6-oxo-5,6-dihydro-1,5-naphthyridine-2,7-dicarbonitrile] | – | – | – | – | > 100 µM | 0.15 µM | > 240 µM | – | 10000 nM | – |
| Cc1ccc(F)c(CN2CCN(c3c(C#N)c(=O)n(C)c4ccc(Cl)nc34)CC2)c1 [Example 364, 6-chloro-4-{4-[(2-fluoro-5-methylphenyl)methyl]piperazin-1-yl}-1-methyl-2-oxo-1,2-dihydro-1,5-naphthyridine-3-carbonitrile] | – | – | – | – | > 100 µM | 1.1 µM | > 240 µM | – | 1570 nM | 10000 nM |
| COc1cccc(Cl)c1CN1CCN(c2c(C#N)c(=O)n(C)c3ccc(Cl)nc23)CC1 [Example 365, 6-chloro-4-{4-[(2-chloro-6-methoxyphenyl)methyl]piperazin-1-yl}-1-methyl-2-oxo-1,2-dihydro-1,5-naphthyridine-3-carbonitrile] | – | – | – | – | > 100 µM | 3.5 µM | 190 µM | – | 2220 nM | 10000 nM |
| Cn1c(=O)c(C#N)c(N2CCN(Cc3cccc4cc[nH]c34)CC2)c2nc(Br)ccc21 [Example 373, 6-bromo-4-{4-[(1H-indol-7-yl)methyl]piperazin-1-yl}-1-methyl-2-oxo-1,2-dihydro-1,5-naphthyridine-3-carbonitrile] | – | – | – | – | > 100 µM | 2.5 µM | 100 µM | – | 260 nM | – |
| Cn1c(=O)c(C#N)c(N2CCN(Cc3c(F)cccc3F)CC2)c2nc(Cl)ccc21 [Example 422, 6-chloro-4-{4-[(2,6-difluorophenyl)methyl]piperazin-1-yl}-1-methyl-2-oxo-1,2-dihydro-1,5-naphthyridine-3-carbonitrile] | – | – | – | – | > 100 µM | 1.4 µM | > 240 µM | – | 3490 nM | – |
